In patent US11136311B2, “Heteroaromatic derivatives as NIK inhibitors” (Janssen Pharmaceutica NV, priority 2016, dated 2021):
Read-outs that look alike come from different tables or passages of the source.

What was measured:
[1] = target: recombinant human NF-kappaB-inducing kinase (NIK/MAP3K14) (Homo sapiens (Human), UniProt Q99558); test: Inhibition of auto-phosphorylation of recombinant human NIK/MAP3K14 activity (AlphaScreen); assay type: biochemical; settings: averaged values over all measurements on all batches
Experimental: Inhibition of auto-phosphorylation of recombinant human NF-kappaB-inducing kinase (NIK/MAP3K14) activity (AlphaScreen®)
NIK/MAP3K14 auto-phosphorylation activity was measured using the AlphaScreen® (αscreen) format (Perkin Elmer). All compounds tested were dissolved in dimethyl sulfoxide (DMSO) and further dilutions were made in assay buffer. Final DMSO concentration was 1% (v/v) in assays. Assay buffer was 50 mM Tris pH 7.5 containing 1 mM EGTA (ethylene glycol tetraacetic acid), 1 mM DTT (dithiothreitol), 0.1 mM Na3VO4, 5 mM MgCl2, 0.01% Tween® 20. Assays were carried out in 384 well Alphaplates (Perkin Elmer). Incubations consisted of compound, 25 microM Adenosine-5′-triphosphate (ATP), and 0.2 nM NIK/MAP3K14. Incubations were initiated by addition of GST-tagged NIK/MAP3K14 enzyme, carried out for 1 h at 25° C. and terminated by addition of stop buffer containing anti-phospho-IKK Ser176/180 antibody. Protein A Acceptor and Glutathione-Donor beads were added before reading using an EnVision® Multilabel Plate Reader (Perkin Elmer). Signal obtained in the wells containing blank samples was subtracted from all other wells and IC50's were determined by fitting a sigmoidal curve to % inhibition of control versus Log10 compound concentration.

[2] = test system: KMS12-BM cells; test: Antiproliferative activity on KMS12-BM (NIK WT) multiple myeloma cells (CellTiter-Glo); assay type: cell-based, human; settings: KMS12-BM (NIK WT) cells, 96 hr, averaged values, read-out: KMS-12 Proliferation inhibition (IC50 (nM))
Experimental: (§1) Determination of antiproliferative activity on JJN-3 (NIK translocated) and KMS12-BM (NIK WT) multiple myeloma cells
(§2) All compounds tested were dissolved in DMSO and further dilutions were made in culture medium. Final DMSO concentration was 0.3% (v/v) in cell proliferation assays. Viability was assessed using CellTiter-Glo cell viability assay kit (Promega). The human JJN-3 and KMS12-BM cells (DSMZ) were cultured in RPMI 1640 medium supplemented with 2 mM L-glutamine, and 10% fetal calf serum (PAA). Cells were routinely kept as suspension cells at 37° C. in a humidified 5% CO2 atmosphere. Cells were passaged at a seeding density of 0.2×10^6/ml twice a week. Cells were seeded in black tissue culture treated 96-well plates (Perkin Elmer). Densities used for plating ranged from 15000 (JJN3) to 20000 (KMS12BM) cells per well in a total volume of 135 μl medium. Drugs and/or solvents were added (15 μl) to a final volume of 150 μl. Following 96 hr of treatment, plates were removed from the incubator and allowed to equilibrate to room temperature for approx 10 min. 75 μl CellTiter-Glo reagent was added to each well that was then covered (Perkin Elmer Topseal) and shaken on plate shaker for 10 min. Luminescence was measured on a HTS Topcount (Perkin Elmer). Within an experiment, the results for each treatment were the mean of 2 replicate wells. For initial screening purposes, compounds were tested using a 9 point dilution curve (serial 1:3 dilutions). For each experiment, controls (containing no drug) and a blank incubation (containing cells read at the time of compound addition) were run in parallel. The blank value was subtracted from all control and sample values. For each sample, the mean value for cell growth (in relative light units) was expressed as a percentage of the mean value for cell growth of the control.

[3] = test system: JJN-3 cells; test: Antiproliferative activity on JJN-3 (NIK translocated) multiple myeloma cells (CellTiter-Glo); assay type: cell-based, human; settings: JJN-3 (NIK translocated) cells, 96 hr, averaged values, read-out: JJN-3 Proliferation inhibition (IC50 (nM))
Experimental: as §1, §2

Sequence of recombinant human NF-kappaB-inducing kinase (NIK/MAP3K14) (Q99558 whole entry): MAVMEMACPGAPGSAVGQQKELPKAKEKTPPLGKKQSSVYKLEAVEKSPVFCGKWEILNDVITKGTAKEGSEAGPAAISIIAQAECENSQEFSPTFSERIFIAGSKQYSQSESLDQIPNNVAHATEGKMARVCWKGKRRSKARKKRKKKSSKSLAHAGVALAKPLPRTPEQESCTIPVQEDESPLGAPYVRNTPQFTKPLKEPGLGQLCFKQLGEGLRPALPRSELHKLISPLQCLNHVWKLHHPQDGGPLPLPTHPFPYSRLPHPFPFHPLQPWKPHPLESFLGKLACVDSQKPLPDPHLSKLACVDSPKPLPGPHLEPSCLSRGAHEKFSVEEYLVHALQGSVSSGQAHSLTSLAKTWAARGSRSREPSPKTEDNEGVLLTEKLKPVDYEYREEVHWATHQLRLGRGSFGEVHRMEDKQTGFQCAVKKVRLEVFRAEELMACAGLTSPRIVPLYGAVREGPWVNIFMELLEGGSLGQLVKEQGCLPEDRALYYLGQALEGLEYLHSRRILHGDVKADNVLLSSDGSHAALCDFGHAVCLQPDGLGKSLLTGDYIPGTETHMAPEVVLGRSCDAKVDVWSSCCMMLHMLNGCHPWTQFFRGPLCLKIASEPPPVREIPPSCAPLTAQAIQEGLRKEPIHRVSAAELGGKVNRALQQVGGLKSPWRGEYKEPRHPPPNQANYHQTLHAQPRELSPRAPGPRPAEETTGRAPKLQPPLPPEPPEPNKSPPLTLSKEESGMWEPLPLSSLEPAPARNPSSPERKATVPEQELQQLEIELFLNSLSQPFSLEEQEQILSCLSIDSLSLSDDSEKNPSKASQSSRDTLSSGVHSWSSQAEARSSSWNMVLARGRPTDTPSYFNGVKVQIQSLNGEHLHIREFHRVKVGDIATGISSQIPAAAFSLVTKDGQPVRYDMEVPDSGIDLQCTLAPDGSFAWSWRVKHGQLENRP

| Structure (SMILES) | IC50 [1] [nM] | IC50 ([2]; Homo sapiens, KMS-12-BM, 96 h) [nM] | IC50 ([3]; Homo sapiens, JJN-3, 96 h) [nM] | IC50 [2] [nM] | IC50 [3] [nM] |
| --- | --- | --- | --- | --- | --- |
| CN(CCO)C[C@]1(C)CNc2c(C#N)cc(-c3ccnc(Nc4ccn(C)n4)n3)cc21 [Compound 173] | 162 | ~6310 | 6030 |  |  |
| COC(C)Cn1nc(C)cc1Nc1nccc(-c2cc(C#N)c3c(c2)[C@@](C)(CO)CN3)n1 (single isomer, unassigned) [Compound 78] | 9.8 |  |  | 9120 | 457 |
| Cn1nc(Nc2nccc(-c3cc(C#N)c4c(c3)C(C)(CO)CN4)n2)cc1C(=O)N1CCC(F)(F)CC1 (centres unmarked) [Compound 22] | 18 | > 10000 | 2340 |  |  |
| C[C@]1(CO)CNc2c(C#N)cc(-c3ccnc(Nc4ccn(CC5CC5)n4)n3)cc21 [Compound 40] | 2.2 | 562 | 295 |  |  |
| Cc1cc(Nc2nccc(-c3cc(C#N)c4c(c3)[C@@](C)(CO)CN4)n2)n(CC(=O)N(C2CC2)C2CC2)n1 [Compound 80] | 3.9 | 6170 | 1100 |  |  |
| Cc1cc(Nc2nccc(-c3cc(C#N)c4c(c3)C(C)(CO)CN4)n2)n(C)n1 (centres unmarked) [Compound 3] | 4.2 | ~1230 | 407 |  |  |
| COCCCn1nccc1Nc1nccc(-c2cc(C#N)c3c(c2)C(C)(CO)CN3)n1 (centres unmarked) [Compound 27] | 13 | ~4570 | 389 |  |  |
| COC(C)(C)CCn1nc(C)cc1Nc1nccc(-c2cc(C#N)c3c(c2)[C@@](C)(CO)CN3)n1 [Compound 59] | 5 | 1950 | 68 |  |  |
| Cc1cc(Nc2nccc(-c3cc(C#N)c4c(c3)[C@@](C)(CO)CN4)n2)n(CC(=O)N(C)C(C)C)n1 [Compound 79] | 8.3 | > 10000 | 2240 |  |  |
| CC(C)n1ccc(Nc2nccc(-c3cc(C#N)c4c(c3)C(C)(CO)CN4)n2)n1 (centres unmarked) [Compound 20] | 3.4 | 2510 | 229 |  |  |
| Cc1cc(Nc2nccc(-c3cc(C#N)c4c(c3)[C@@](C)(CO)CN4)n2)n(CC2CCOCC2)n1 [Compound 61] | 4.4 | 355 | 162 |  |  |
| CNC(=O)c1nn(C)cc1Nc1nccc(-c2cc(C#N)c3c(c2)[C@@](C)(CO)CN3)n1 [Compound 53] | 3.5 | ~5010 | 851 |  |  |
| Cn1cc(Nc2nccc(-c3cc(C#N)c4c(c3)C(C)(CO)CN4)n2)cn1 (centres unmarked) [Compound 4] | 2.5 | 162 | ~55 |  |  |
| COCCn1nc(C)cc1Nc1nccc(-c2cc(C#N)c3c(c2)[C@](C)(CO)CN3)n1 [Compound 57] | 28 | > 10000 | ~933 |  |  |
| COC(C)(C)CCn1nc(Nc2nccc(-c3cc(C#N)c4c(c3)[C@@](C)(CO)CN4)n2)cc1C [Compound 58] | 1.5 | 468 | 69 |  |  |
| CC(C)n1ccc(Nc2nccc(-c3cc(C#N)c4c(c3)[C@@](C)(CO)CN4)n2)n1 [Compound 48] | 5.1 | 263 | 89 |  |  |
| COCCn1nc(C2CCOCC2)cc1Nc1nccc(-c2cc(C#N)c3c(c2)[C@@](C)(CO)CN3)n1 [Compound 66] | 13 | > 10000 | 324 |  |  |
| Cn1ccc(Nc2ncnc(-c3cc(C#N)c4c(c3)C(C)(CO)CN4)n2)n1 (centres unmarked) [Compound 216] | 7.8 | 2630 | 537 |  |  |
| CN(C)C(=O)c1cc(Nc2nccc(-c3cc(C#N)c4c(c3)[C@@](C)(CO)CN4)n2)nn1C [Compound 45] | 7.6 | 4170 | 1320 |  |  |
| Cn1nc(Nc2nccc(-c3cc(C#N)c4c(c3)C(C)(CO)CN4)n2)cc1C1(C)COC1 (centres unmarked) [Compound 26] | 10 | ~2950 | 457 |  |  |

| Structure (SMILES) | IC50 [1] [nM] | IC50 ([2]; Homo sapiens, KMS-12-BM, 96 h) [nM] | IC50 ([3]; Homo sapiens, JJN-3, 96 h) [nM] | IC50 [2] [nM] | IC50 [3] [nM] |
| --- | --- | --- | --- | --- | --- |
| CC(C)(C)c1cc(Nc2nccc(-c3cc(C#N)c4c(c3)C(C)(CO)CN4)n2)n(CCO)n1 (centres unmarked) [Compound 10] | 13 | > 10000 | 724 |  |  |
| Cc1csc(Nc2nccc(-c3cc(C#N)c4c(c3)[C@@](C)(CO)CN4)n2)n1 [Compound 145] | 1.5 | ~3390 | 71 |  |  |
| Cc1nn(C2CCOCC2)cc1Nc1nccc(-c2cc(C#N)c3c(c2)[C@@](C)(CO)CN3)n1 [Compound 74] | 3 | ~3890 | 324 |  |  |
| Cn1nc(Nc2nccc(-c3cc(C#N)c4c(c3)[C@@](C)(CO)CN4)n2)cc1CN1CCOCC1 [Compound 39] | 32 | > 10000 | 1440 |  |  |
| Cc1nnc(Nc2nccc(-c3cc(C#N)c4c(c3)C(C)(CO)CN4)n2)o1 (centres unmarked) [Compound 142] | 42 | ~9770 | > 10000 |  |  |
| CN(CCO)C[C@@]1(C)CNc2c(C#N)cc(-c3ccnc(Nc4ccn(C)n4)n3)cc21 [Compound 174] | 35 |  |  | 3160 | 1550 |
| Cc1cc(Nc2nccc(-c3cc(C#N)c4c(c3)C(C)(CO)CN4)n2)n(CCN(C)C)n1 (centres unmarked) [Compound 11] |  | 3700 | 576 |  |  |
| Cn1nccc1Nc1nccc(-c2cc(C#N)c3c(c2)C(C)(CO)CN3)n1 (centres unmarked) [Compound 2] | 6.9 | 794 | 141 |  |  |
| CCOCCn1nc(C)cc1Nc1nccc(-c2cc(C#N)c3c(c2)[C@@](C)(CO)CN3)n1 [Compound 44] | 4.5 | 8710 | 324 |  |  |
| COC(C)Cn1nc(C)cc1Nc1nccc(-c2cc(C#N)c3c(c2)[C@@](C)(CO)CN3)n1 (single isomer, unassigned) [Compound 77] | 13 |  | 309 | 1580 |  |
| Cn1nc(C(=O)NC2CCOCC2)cc1Nc1nccc(-c2cc(C#N)c3c(c2)C(C)(CO)CN3)n1 (centres unmarked) [Compound 25] | 8.1 | 1510 | 1900 |  |  |
| Cc1cc(Nc2nccc(-c3cc(C#N)c4c(c3)[C@@](C)(CO)CN4)n2)n(C2CCN(C)CC2)n1 [Compound 62] | 23 | 269 | 204 |  |  |
| CN1CCC(n2ccc(Nc3nccc(-c4cc(C#N)c5c(c4)[C@@](C)(CO)CN5)n3)n2)CC1 [Compound 37] | 2 | 182 | 162 |  |  |
| CN1CCC(n2cc(Nc3nccc(-c4cc(C#N)c5c(c4)C(C)(CO)CN5)n3)cn2)CC1 (centres unmarked) [Compound 12] | 3.6 | ~214 | ~45 |  |  |
| Cc1cc(Nc2nccc(-c3cc(C#N)c4c(c3)[C@@](C)(CO)CN4)n2)n(CC2CCCCO2)n1 (single isomer, unassigned) [Compound 68] | 5.3 | > 10000 |  |  | 38 |
| CC1(CO)CNc2c(C#N)cc(-c3ccnc(Nc4cc[nH]n4)n3)cc21 (centres unmarked) [Compound 21] | 2.9 | 1020 | 813 |  |  |
| Cn1nc(C2CCCCC2)cc1Nc1nccc(-c2cc(C#N)c3c(c2)C(C)(CO)CN3)n1 (centres unmarked) [Compound 6] | 7.6 | > 10000 | 347 |  |  |
| Cc1cc(Nc2nccc(-c3cc(C#N)c4c(c3)[C@@](C)(CO)CN4)n2)n(CC2CCCO2)n1 (single isomer, unassigned) [Compound 52] | 6.9 |  |  | > 10000 | 115 |
| Cn1nc(Nc2nccc(-c3cc(C#N)c4c(c3)[C@@](C)(CO)CN4)n2)cc1Cl [Compound 43] | 2.6 | 933 | 234 |  |  |
